#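 The compound was tested at five concentrations on cells cultured in 96-well plates, with a 48-hour exposure period. GI50: concentration for 50% inhibition of growth.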 The source made the active and inactive calls. Cut-off read from the data, not from the text of the source: active = GI50 up to about 1.1 µM and inactive = higher.
# Experiments:
# Assay in all cases: NCI anticancer screen, dose series, 48 h
# CCRF-CEM = system: CCRF-CEM
# LOX IMVI = system: LOX IMVI
# COLO 205 = system: COLO 205
# EKVX = system: EKVX
# UACC-62 = system: UACC-62
# HOP-92 = system: HOP-92
# Malme-3M = system: Malme-3M
# OVCAR-5 = system: OVCAR-5
# TK-10 = system: TK-10
# NCI-H226 = system: NCI-H226
# NCI-H460 = system: NCI-H460
# SF-295 = system: SF-295
# OVCAR-3 = system: OVCAR-3
# K562 = system: K562
# SNB-75 = system: SNB-75
# RXF 393 = system: RXF 393
# SW-620 = system: SW-620
# SK-OV-3 = system: SK-OV-3
# SK-MEL-5 = system: SK-MEL-5
# NCI-H522 = system: NCI-H522
SMILES,GI50 (CCRF-CEM),GI50 (LOX IMVI),GI50 (COLO 205),GI50 (EKVX),GI50 (UACC-62),GI50 (HOP-92),GI50 (Malme-3M),GI50 (OVCAR-5),GI50 (TK-10),GI50 (NCI-H226),GI50 (NCI-H460),GI50 (SF-295),GI50 (OVCAR-3),GI50 (K562),GI50 (SNB-75),GI50 (RXF 393),GI50 (SW-620),GI50 (SK-OV-3),GI50 (SK-MEL-5),GI50 (NCI-H522)
CCCCCCCCCCCCCCCCOC(=O)C(C(=O)OCCCCCCCCCCCCCCCC)[N+](C)(C)CCOC(C)=O,10.3 µM (inactive),21.8 µM (inactive),15.8 µM (inactive),21 µM (inactive),21.5 µM (inactive),2.85 µM (inactive),21.2 µM (inactive),20.8 µM (inactive),13 µM (inactive),18.7 µM (inactive),28.1 µM (inactive),18.1 µM (inactive),16.7 µM (inactive),19.5 µM (inactive),12.9 µM (inactive),2.99 µM (inactive),20.6 µM (inactive),17.8 µM (inactive),19.7 µM (inactive),5.16 µM (inactive)
COc1cc2c(cc1O)[C@@H]1Cc3c(cc(OC)c(OC)c3Oc3cc4c(cc3OC)CCN(C)[C@@H]4Cc3ccc(O)cc3)[C@H](C2)N1C,28.6 µM (inactive),18.5 µM (inactive),19.4 µM (inactive),> 100 µM (inactive),> 55.8 µM (inactive),37.9 µM (inactive),17.1 µM (inactive),> 100 µM (inactive),> 72.3 µM (inactive),> 100 µM (inactive),53.7 µM (inactive),46 µM (inactive),> 100 µM (inactive),20.3 µM (inactive),20.6 µM (inactive),2.1 µM (inactive),36.6 µM (inactive),> 94 µM (inactive),15.8 µM (inactive),27.7 µM (inactive)
COCCCCCC(=O)CP(=O)(OC)OC,> 100 µM (inactive),> 100 µM (inactive),> 100 µM (inactive),> 100 µM (inactive),> 100 µM (inactive),> 100 µM (inactive),> 100 µM (inactive),> 100 µM (inactive),> 100 µM (inactive),> 100 µM (inactive),> 100 µM (inactive),> 100 µM (inactive),> 100 µM (inactive),> 100 µM (inactive),> 100 µM (inactive),> 100 µM (inactive),> 100 µM (inactive),> 100 µM (inactive),> 100 µM (inactive),> 100 µM (inactive)
C#CCOCC12C=CC(O1)C1COC(=O)C12 (stereo not given),> 100 µM (inactive),> 100 µM (inactive),> 100 µM (inactive),> 100 µM (inactive),> 100 µM (inactive),7.14 µM (inactive),> 100 µM (inactive),> 100 µM (inactive),> 100 µM (inactive),> 100 µM (inactive),> 100 µM (inactive),> 100 µM (inactive),> 100 µM (inactive),> 100 µM (inactive),> 100 µM (inactive),> 100 µM (inactive),> 100 µM (inactive),> 100 µM (inactive),> 100 µM (inactive),> 100 µM (inactive)
O=[N+]([O-])C(=C/C1CCCCC1)/C(=C\C1CCCCC1)[N+](=O)[O-],2.62 µM (inactive),2.12 µM (inactive),3.21 µM (inactive),9.4 µM (inactive),5.7 µM (inactive),7.05 µM (inactive),2.2 µM (inactive),11.7 µM (inactive),6.27 µM (inactive),7.28 µM (inactive),5.16 µM (inactive),16.3 µM (inactive),9.23 µM (inactive),4.49 µM (inactive),14.1 µM (inactive),1.49 µM (inactive),3.35 µM (inactive),21.7 µM (inactive),7.83 µM (inactive),1.8 µM (inactive)
CCSC1(SCC)CC(Cc2ccc(OC)cc2)N(/C=N/C(C)(C)C)C1 (stereo not given),15.2 µM (inactive),15.1 µM (inactive),21 µM (inactive),27 µM (inactive),19.1 µM (inactive),0.321 µM (active),20.1 µM (inactive),11.5 µM (inactive),17.3 µM (inactive),27.6 µM (inactive),8.51 µM (inactive),15.1 µM (inactive),27.8 µM (inactive),17.8 µM (inactive),26.2 µM (inactive),11.5 µM (inactive),15.1 µM (inactive),22.8 µM (inactive),16.4 µM (inactive),15 µM (inactive)
COc1ccc(/C=N/c2nc3cc4sc(/N=C/c5ccc(OC)cc5)nc4cc3s2)cc1,4.2 µM (inactive),28.3 µM (inactive),3.66 µM (inactive),21.2 µM (inactive),27.3 µM (inactive),> 78.9 µM (inactive),> 54 µM (inactive),> 81.5 µM (inactive),30.9 µM (inactive),24.9 µM (inactive),5 µM (inactive),43.6 µM (inactive),23.6 µM (inactive),34 µM (inactive),> 100 µM (inactive),> 57.9 µM (inactive),12.8 µM (inactive),49.7 µM (inactive),13.6 µM (inactive),10.4 µM (inactive)
O=C1CCCC2=C1CC1=C(CCCC1=O)N2c1ccc(-c2ccccc2)cc1,> 100 µM (inactive),> 100 µM (inactive),> 100 µM (inactive),> 100 µM (inactive),> 66.5 µM (inactive),> 75.3 µM (inactive),> 100 µM (inactive),> 100 µM (inactive),> 75 µM (inactive),> 100 µM (inactive),> 100 µM (inactive),> 100 µM (inactive),> 100 µM (inactive),> 100 µM (inactive),> 47.4 µM (inactive),> 24.6 µM (inactive),> 100 µM (inactive),> 76.9 µM (inactive),> 100 µM (inactive),> 100 µM (inactive)
COC(=O)[C@H]1COC(=O)N1,> 100 µM (inactive),> 100 µM (inactive),> 100 µM (inactive),> 100 µM (inactive),> 100 µM (inactive),> 100 µM (inactive),> 100 µM (inactive),> 100 µM (inactive),> 100 µM (inactive),> 100 µM (inactive),> 100 µM (inactive),> 100 µM (inactive),> 100 µM (inactive),> 100 µM (inactive),> 100 µM (inactive),> 100 µM (inactive),> 100 µM (inactive),> 100 µM (inactive),> 100 µM (inactive),> 100 µM (inactive)
Cc1nc(O)nc(N(CCO)/N=C/c2ccc(Cl)cc2)c1C(=O)Nc1ccc(Cl)cc1,> 100 µM (inactive),> 100 µM (inactive),> 100 µM (inactive),> 100 µM (inactive),> 100 µM (inactive),> 100 µM (inactive),26.1 µM (inactive),> 100 µM (inactive),85.3 µM (inactive),72.6 µM (inactive),> 100 µM (inactive),> 100 µM (inactive),> 100 µM (inactive),> 100 µM (inactive),55.2 µM (inactive),24.7 µM (inactive),> 100 µM (inactive),58.2 µM (inactive),> 100 µM (inactive),> 100 µM (inactive)
NC(=O)/C(=C\c1ccncc1)c1cccc2ccccc12,> 100 µM (inactive),> 100 µM (inactive),50.5 µM (inactive),> 100 µM (inactive),25.3 µM (inactive),> 100 µM (inactive),> 100 µM (inactive),> 100 µM (inactive),> 100 µM (inactive),38 µM (inactive),45.1 µM (inactive),> 100 µM (inactive),> 100 µM (inactive),> 100 µM (inactive),> 100 µM (inactive),> 100 µM (inactive),> 100 µM (inactive),> 100 µM (inactive),56.9 µM (inactive),> 100 µM (inactive)
COc1ccc(NC(=O)CC/C(CC(=O)c2ccco2)=N/Nc2ccc([N+](=O)[O-])cc2[N+](=O)[O-])cc1,23.7 µM (inactive),39.7 µM (inactive),> 100 µM (inactive),> 100 µM (inactive),34.4 µM (inactive),34.4 µM (inactive),> 100 µM (inactive),> 100 µM (inactive),> 100 µM (inactive),> 100 µM (inactive),> 100 µM (inactive),62.1 µM (inactive),42.6 µM (inactive),32 µM (inactive),> 100 µM (inactive),75.9 µM (inactive),99.8 µM (inactive),> 100 µM (inactive),48.4 µM (inactive),55 µM (inactive)
CC(C)C1CCC(=O)CC1CCCCC1CC(=O)CC1O[Si](C)(C)C(C)(C)C (stereo not given),0.955 µM (active),2.84 µM (inactive),4.21 µM (inactive),15.7 µM (inactive),4.45 µM (inactive),3.3 µM (inactive),6.76 µM (inactive),11.1 µM (inactive),10.5 µM (inactive),3.9 µM (inactive),7.46 µM (inactive),9.62 µM (inactive),14.4 µM (inactive),2.76 µM (inactive),13.2 µM (inactive),4.67 µM (inactive),4.91 µM (inactive),11.9 µM (inactive),3.05 µM (inactive),2.1 µM (inactive)
O=c1[nH]/c(=C/c2ccc(OCc3ccccc3)cn2)c(=O)[nH]/c1=C/c1ccc([N+](=O)[O-])cc1,> 100 µM (inactive),> 100 µM (inactive),> 100 µM (inactive),> 100 µM (inactive),> 100 µM (inactive),> 100 µM (inactive),> 100 µM (inactive),> 100 µM (inactive),> 100 µM (inactive),> 100 µM (inactive),> 100 µM (inactive),49.1 µM (inactive),> 100 µM (inactive),> 100 µM (inactive),27.1 µM (inactive),> 80.2 µM (inactive),> 100 µM (inactive),> 73.5 µM (inactive),> 100 µM (inactive),> 100 µM (inactive)
